Experimental data taken from doi:10.1101/2020.07.01.182642v1 (biorxiv, 2020).

How the values were obtained:
Details in all cases: binder
[1] = molecular target: BMPR1A (Homo sapiens, UniProt P36894)
[2] = molecular target: CLK4 (Homo sapiens, UniProt Q9HAZ1)
[3] = molecular target: CSNK1E (Homo sapiens, UniProt P49674)
[4] = molecular target: CSNK1G2 (Homo sapiens, UniProt P78368)
[5] = molecular target: OXSR1 (Homo sapiens, UniProt O95747)
[6] = molecular target: PTK6 (Homo sapiens, UniProt Q13882)
[7] = molecular target: ABL2 (Homo sapiens, UniProt P42684)
[8] = molecular target: ADRBK2 (Homo sapiens, UniProt P35626)
[9] = molecular target: CAMK2G (Homo sapiens, UniProt Q13555)
[10] = molecular target: CAMK4 (Homo sapiens, UniProt Q16566)
[11] = molecular target: DDR1 (Homo sapiens, UniProt Q08345)
[12] = molecular target: FGR (Homo sapiens, UniProt P09769)
[13] = molecular target: GRK5 (Homo sapiens, UniProt P34947)
[14] = molecular target: ITK (Homo sapiens, UniProt Q08881)
[15] = molecular target: NEK6 (Homo sapiens, UniProt Q9HC98)
[16] = molecular target: NLK (Homo sapiens, UniProt Q9UBE8)
[17] = molecular target: PAK1 (Homo sapiens, UniProt Q13153)
[18] = molecular target: PAK2 (Homo sapiens, UniProt Q13177)
[19] = molecular target: PRKACA (Homo sapiens, UniProt P17612)
[20] = molecular target: PRKCZ (Homo sapiens, UniProt Q05513)
[21] = molecular target: PRKD2 (Homo sapiens, UniProt Q9BZL6)
[22] = molecular target: PRKX (Homo sapiens, UniProt P51817)
[23] = molecular target: SGK3 (Homo sapiens, UniProt Q96BR1)
[24] = molecular target: SRPK1 (Homo sapiens, UniProt Q96SB4)
[25] = molecular target: STK32B (Homo sapiens, UniProt Q9NY57)
[26] = molecular target: TYK2 (Homo sapiens, UniProt P29597)
[27] = molecular target: VRK3 (Homo sapiens, UniProt Q8IV63)
[28] = molecular target: ERN2 (Homo sapiens, UniProt Q76MJ5)
[29] = molecular target: FGFR4 (Homo sapiens, UniProt P22455)
[30] = molecular target: IGF1R (Homo sapiens, UniProt P08069)
[31] = molecular target: MYO3A (Homo sapiens, UniProt Q8NEV4)

Sequence of ABL2 (P42684 whole entry): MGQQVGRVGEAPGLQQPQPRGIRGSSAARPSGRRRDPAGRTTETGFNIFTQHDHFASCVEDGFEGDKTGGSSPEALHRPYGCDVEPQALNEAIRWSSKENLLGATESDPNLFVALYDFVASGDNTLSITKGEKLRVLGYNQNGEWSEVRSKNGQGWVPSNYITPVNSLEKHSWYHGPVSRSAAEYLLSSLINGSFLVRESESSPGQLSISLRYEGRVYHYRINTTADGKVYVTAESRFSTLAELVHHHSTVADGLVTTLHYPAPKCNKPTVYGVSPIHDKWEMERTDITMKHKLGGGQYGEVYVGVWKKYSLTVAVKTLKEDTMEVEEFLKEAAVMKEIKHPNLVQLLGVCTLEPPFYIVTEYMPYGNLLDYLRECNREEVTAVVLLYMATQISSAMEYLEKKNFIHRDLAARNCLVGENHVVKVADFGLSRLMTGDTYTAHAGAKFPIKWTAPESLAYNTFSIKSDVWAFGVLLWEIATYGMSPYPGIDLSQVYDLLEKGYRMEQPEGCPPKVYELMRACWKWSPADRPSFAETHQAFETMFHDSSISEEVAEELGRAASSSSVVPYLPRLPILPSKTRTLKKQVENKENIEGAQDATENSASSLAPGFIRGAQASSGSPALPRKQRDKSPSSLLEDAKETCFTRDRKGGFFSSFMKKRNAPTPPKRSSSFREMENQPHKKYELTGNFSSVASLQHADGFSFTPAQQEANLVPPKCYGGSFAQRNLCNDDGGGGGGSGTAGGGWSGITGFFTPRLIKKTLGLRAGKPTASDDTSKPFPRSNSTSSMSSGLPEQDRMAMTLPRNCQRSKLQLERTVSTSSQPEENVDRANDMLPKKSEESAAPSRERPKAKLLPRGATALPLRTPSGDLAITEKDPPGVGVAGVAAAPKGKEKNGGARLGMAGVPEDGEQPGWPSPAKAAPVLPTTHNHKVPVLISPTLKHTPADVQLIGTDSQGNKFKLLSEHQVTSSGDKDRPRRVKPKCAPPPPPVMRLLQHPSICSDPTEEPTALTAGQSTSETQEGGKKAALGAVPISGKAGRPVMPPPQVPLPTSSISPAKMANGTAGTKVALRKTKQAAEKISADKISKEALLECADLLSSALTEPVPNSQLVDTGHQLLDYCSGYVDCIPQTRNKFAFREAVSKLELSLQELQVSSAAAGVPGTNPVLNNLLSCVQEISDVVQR
Sequence of NLK (Q9UBE8 whole entry): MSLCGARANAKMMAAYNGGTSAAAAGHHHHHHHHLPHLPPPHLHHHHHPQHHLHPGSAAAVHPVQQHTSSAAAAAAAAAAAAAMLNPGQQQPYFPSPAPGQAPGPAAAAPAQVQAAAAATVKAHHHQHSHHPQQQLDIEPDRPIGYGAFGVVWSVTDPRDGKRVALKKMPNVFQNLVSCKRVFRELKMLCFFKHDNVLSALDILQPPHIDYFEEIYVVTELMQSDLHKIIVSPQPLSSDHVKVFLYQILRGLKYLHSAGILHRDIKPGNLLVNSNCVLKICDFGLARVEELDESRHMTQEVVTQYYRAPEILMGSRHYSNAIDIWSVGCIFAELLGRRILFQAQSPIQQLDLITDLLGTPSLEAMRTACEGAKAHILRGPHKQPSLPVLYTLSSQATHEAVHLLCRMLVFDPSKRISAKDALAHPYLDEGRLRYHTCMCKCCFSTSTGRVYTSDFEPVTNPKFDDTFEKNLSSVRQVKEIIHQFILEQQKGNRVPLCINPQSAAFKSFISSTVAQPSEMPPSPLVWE
Sequence of NEK6 (Q9HC98 whole entry): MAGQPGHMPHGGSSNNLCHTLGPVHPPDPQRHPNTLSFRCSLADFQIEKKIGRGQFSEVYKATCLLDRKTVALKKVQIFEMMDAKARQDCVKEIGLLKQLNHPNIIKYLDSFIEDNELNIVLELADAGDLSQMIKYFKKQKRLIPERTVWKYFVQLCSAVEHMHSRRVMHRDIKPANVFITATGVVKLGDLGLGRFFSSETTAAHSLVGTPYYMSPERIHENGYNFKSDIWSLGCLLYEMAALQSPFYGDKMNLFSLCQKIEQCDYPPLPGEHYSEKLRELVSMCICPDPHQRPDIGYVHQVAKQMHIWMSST
Sequence of PRKX (P51817 whole entry): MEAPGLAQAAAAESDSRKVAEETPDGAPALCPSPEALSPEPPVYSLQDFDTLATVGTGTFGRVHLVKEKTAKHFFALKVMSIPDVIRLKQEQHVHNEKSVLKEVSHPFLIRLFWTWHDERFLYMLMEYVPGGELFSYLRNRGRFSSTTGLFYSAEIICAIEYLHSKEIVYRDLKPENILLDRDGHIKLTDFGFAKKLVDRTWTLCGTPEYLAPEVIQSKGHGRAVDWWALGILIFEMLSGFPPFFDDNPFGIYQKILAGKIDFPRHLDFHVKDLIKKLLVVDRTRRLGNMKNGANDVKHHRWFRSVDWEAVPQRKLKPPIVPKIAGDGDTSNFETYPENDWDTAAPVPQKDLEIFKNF
Sequence of CAMK4 (Q16566 whole entry): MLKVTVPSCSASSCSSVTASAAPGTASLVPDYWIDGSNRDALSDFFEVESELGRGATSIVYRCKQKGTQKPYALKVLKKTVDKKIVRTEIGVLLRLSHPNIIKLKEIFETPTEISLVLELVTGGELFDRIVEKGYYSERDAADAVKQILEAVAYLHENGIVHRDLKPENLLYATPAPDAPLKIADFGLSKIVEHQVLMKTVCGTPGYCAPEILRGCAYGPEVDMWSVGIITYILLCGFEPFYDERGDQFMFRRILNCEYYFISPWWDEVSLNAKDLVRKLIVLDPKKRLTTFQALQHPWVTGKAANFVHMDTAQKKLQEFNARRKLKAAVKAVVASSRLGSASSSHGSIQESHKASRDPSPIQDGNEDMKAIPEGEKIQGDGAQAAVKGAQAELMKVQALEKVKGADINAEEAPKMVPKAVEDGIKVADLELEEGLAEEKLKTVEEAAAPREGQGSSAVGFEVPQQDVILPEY
Sequence of BMPR1A (P36894 whole entry): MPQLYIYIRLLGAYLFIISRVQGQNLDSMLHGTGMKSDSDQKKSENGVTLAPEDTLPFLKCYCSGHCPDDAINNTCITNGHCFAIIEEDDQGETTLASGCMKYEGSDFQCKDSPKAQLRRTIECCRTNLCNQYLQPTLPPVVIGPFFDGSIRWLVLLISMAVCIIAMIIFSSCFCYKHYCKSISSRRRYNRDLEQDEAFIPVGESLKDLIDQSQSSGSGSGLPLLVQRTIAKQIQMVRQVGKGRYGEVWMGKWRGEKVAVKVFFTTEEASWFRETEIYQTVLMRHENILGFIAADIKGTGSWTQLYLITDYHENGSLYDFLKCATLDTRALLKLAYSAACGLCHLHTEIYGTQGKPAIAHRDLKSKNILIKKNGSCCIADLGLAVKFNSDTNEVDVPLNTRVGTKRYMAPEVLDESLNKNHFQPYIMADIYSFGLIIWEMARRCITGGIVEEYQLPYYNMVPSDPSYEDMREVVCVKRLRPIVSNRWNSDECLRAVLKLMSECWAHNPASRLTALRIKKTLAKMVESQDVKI
Sequence of PRKCZ (Q05513 whole entry): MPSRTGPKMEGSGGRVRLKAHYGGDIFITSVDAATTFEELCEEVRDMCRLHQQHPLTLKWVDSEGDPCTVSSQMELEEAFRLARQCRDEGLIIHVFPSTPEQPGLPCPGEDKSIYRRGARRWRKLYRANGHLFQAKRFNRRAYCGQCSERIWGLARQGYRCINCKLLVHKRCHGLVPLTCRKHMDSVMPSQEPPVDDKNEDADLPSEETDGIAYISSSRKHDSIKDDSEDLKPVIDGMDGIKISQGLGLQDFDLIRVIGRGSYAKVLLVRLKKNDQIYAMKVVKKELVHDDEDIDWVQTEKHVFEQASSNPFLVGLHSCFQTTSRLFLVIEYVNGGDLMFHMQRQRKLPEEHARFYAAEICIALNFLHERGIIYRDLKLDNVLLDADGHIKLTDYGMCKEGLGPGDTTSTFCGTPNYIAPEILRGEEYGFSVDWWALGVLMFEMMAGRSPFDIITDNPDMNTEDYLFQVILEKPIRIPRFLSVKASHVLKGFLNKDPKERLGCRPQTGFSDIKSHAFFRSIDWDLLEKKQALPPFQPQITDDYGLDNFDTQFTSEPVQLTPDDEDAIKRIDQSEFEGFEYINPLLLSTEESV
Sequence of PAK2 (Q13177 whole entry): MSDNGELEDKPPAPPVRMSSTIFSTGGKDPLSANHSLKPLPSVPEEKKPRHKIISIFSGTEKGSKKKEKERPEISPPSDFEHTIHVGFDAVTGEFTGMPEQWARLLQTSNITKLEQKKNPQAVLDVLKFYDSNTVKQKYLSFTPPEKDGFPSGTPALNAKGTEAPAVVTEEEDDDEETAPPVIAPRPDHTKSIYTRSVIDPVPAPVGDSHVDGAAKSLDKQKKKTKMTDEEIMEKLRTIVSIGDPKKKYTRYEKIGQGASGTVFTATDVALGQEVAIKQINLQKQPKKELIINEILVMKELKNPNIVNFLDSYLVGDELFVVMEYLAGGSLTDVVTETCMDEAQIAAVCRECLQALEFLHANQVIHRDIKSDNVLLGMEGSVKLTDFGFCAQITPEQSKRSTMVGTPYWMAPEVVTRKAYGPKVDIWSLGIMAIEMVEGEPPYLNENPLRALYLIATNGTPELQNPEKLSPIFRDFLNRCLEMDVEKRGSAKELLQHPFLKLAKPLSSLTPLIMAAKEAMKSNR
Sequence of PTK6 (Q13882 whole entry): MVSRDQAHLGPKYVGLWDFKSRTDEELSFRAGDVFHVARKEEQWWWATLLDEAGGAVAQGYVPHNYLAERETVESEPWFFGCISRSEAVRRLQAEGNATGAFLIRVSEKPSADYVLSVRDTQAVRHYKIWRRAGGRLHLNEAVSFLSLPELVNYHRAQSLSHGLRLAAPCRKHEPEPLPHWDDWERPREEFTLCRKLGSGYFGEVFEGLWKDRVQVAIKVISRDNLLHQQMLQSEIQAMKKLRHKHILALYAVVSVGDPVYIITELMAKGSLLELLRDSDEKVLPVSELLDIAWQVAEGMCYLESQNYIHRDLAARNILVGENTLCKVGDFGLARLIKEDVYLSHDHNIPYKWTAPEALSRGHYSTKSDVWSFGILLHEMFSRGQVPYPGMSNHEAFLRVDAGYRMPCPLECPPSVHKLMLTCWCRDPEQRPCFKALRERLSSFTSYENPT

CC(=O)c1cccc(-c2cnc3ccc(NCC4CC4)nn23)c1 [compound 1, K00135]
ΔTm inhibitor 1 [1]: 10.9 °C | ΔTm inhibitor 1 [2]: 8.5 °C | ΔTm inhibitor 1 [3]: 4.4 °C | ΔTm inhibitor 1 [4]: 2.5 °C | ΔTm inhibitor 1 [5]: 0.5 °C | ΔTm inhibitor 1 [6]: 0.4 °C

CCN1/C(=C/C(C)=O)Sc2ccc(OC)cc21 [compound 2, TG003]
ΔTm inhibitor 2 [7]: -0.5 °C | ΔTm inhibitor 2 [8]: -0.2 °C | ΔTm inhibitor 2 [9]: 0.1 °C | ΔTm inhibitor 2 [10]: -0.2 °C | ΔTm inhibitor 2 [11]: 0.4 °C | ΔTm inhibitor 2 [12]: -0.2 °C | ΔTm inhibitor 2 [13]: 0.8 °C | ΔTm inhibitor 2 [14]: 1.1 °C | ΔTm inhibitor 2 [15]: -1.0 °C | ΔTm inhibitor 2 [16]: -0.2 °C | ΔTm inhibitor 2 [17]: 0.0 °C | ΔTm inhibitor 2 [18]: -0.6 °C | ΔTm inhibitor 2 [19]: -0.2 °C | ΔTm inhibitor 2 [20]: -0.2 °C | ΔTm inhibitor 2 [21]: 0.7 °C | ΔTm inhibitor 2 [22]: -0.2 °C | ΔTm inhibitor 2 [23]: -0.1 °C | ΔTm inhibitor 2 [24]: 0.0 °C | ΔTm inhibitor 2 [25]: -0.2 °C | ΔTm inhibitor 2 [26]: 0.6 °C | ΔTm inhibitor 2 [27]: 0.5 °C

Nc1nccc(-c2ccc3noc(-c4ccc(Cl)cc4)c3c2)n1 [compound 4, K00972]
ΔTm inhibitor 4 [28]: 0.4 °C | ΔTm inhibitor 4 [29]: 0.2 °C | ΔTm inhibitor 4 [30]: 0.2 °C | ΔTm inhibitor 4 [31]: 0.2 °C
